Common to all, as to format: in vivo, rat
The test system of assay [1] is growth hormone. Nature of the assay: Arginine-stimulated growth hormone level in Nembutal-anaesthetised rats after subcutaneous test compound. To be noted: for GH: p<0.01. As to the method: (§1) Albino male rats were administered Nembutal intraperitoneally at a dose of 50 milligrams per kilogram. Fifteen minutes later a subcutaneous injection of the test compound or physiological saline was administered. Ten minutes later 0.5 milliliters of arginine (300 milligrams per milliliter, pH 7.2) is injected into the heart. Five minutes after receipt of the arginine the rats are decapitated and blood is collected into trasylol-EDTA. An appropriate aliquot was assayed for growth hormone, insulin and glucagon.

The subject of another assay is insulin. Nature of the assay: Arginine-stimulated insulin level in Nembutal-anaesthetised rats after subcutaneous test compound. To be noted: p<0.01. As to the method:
as §1

A further assay has as its system glucagon. Briefly: Arginine-stimulated glucagon level in Nembutal-anaesthetised rats after subcutaneous test compound. As to the method: as §1
Assay [2] deals with growth hormone. Nature of the assay: Duration of activity: plasma growth hormone by radioimmunoassay at hours after SC injection. The note with it: for GH (duration of activity) / GH (duration of growth hormone suppression): 1,000 μg/kg. As to the method: The animals were kept in separate cages. Twenty minutes before the end of the test, 50 mg/kg Nembutal® was administered to all the rats (i.p.). […] Plasma was separated and growth hormone concentration was determined by radio immunoassay. Comparisons between the control and experimental growth hormone values were evaluated by the Student "t" test and statistical significance at the 0.05 level or lower was used as the index of activity. Based upon that test [Brazeau et al., Science, 170, 77 (1973)], the prolonged growth hormone suppression by the compounds of this invention was established. The data obtained for the product of Example 1, illustrative of the duration of activity of the other compounds of this invention, is as follows: […]

[3] abbreviates: dose 2,000 μg/kg, control 220 ± 17.
The mark [4] stands for this setting: dose 2,000 μg/kg, control 34 ± 4.
Where [5] appears, read: dose 2,000 μg/kg, control 38 ± 6.

Counter-ions that a name gives are not always drawn. Positions of bridges follow the written chain, without caps; N, C: chain ends. Non-standard residues stand in square brackets, D forms with d. Residues, ends and D or L forms follow the SMILES beside them.

In the assay with growth hormone [1] (dose 1,000 μg/kg, control 141 ± 14), `C[C@@H](O)[C@@H]1NC(=O)[C@H](Cc2ccccc2)NC(=O)[C@H]([C@@H](C)O)NC(=O)[C@H](CCCCN)NC(=O)[C@@H](Cc2c[nH]c3ccccc23)NC(=O)[C@H](Cc2ccccc2)NC(=O)[C@H](Cc2ccccc2)NC(=O)[C@@H](CCCNC(=N)N)NC(=O)[C@H](CCCNC(=N)N)NC(=O)[C@@H](N)CSSC[C@@H](C(=O)O)NC(=O)[C@H](CO)NC1=O` [Ex. 2, L-Cysteinyl-L-arginyl-D-arginyl-L-phenylalanyl-L-phenylalanyl-D-tryptophyl- L-lysyl-L-threonyl-L-phenylalanyl-L-threonyl-L-seryl-L-cysteine cyclic (1→12)-disulfide tetraacetate (salt)] (H-CR[dR]FF[dW]KTFTSC-OH; disulfide 1-12) had a GH of 4 ± 3 ng/mL. In the assay on insulin (dose 1,000 μg/kg, control 227 ± 19), this compound gave an INS of 89 ± 8 µU/mL. The compound further returned a GLUN with glucagon (dose 1,000 μg/kg, control 61 ± 7) of 44 ± 8 pg/mL. Further, the “GH (duration of activity)” value was found to be 54 ± 11 ng/mL in the assay on growth hormone [2] (2 hours, control 303 ± 53, p<0.001) and 83 ± 9 ng/mL with growth hormone [2] (4 hours, control 73 ± 7).
For `C[C@@H](O)[C@@H]1NC(=O)[C@H](Cc2ccccc2)NC(=O)[C@H]([C@@H](C)O)NC(=O)[C@H](CCCCN)NC(=O)[C@@H](Cc2c[nH]c3ccccc23)NC(=O)[C@H](Cc2ccccc2)NC(=O)[C@H](Cc2ccccc2)NC(=O)[C@@H](CO)NC(=O)[C@H](CCCNC(=N)N)NC(=O)[C@@H](N)CSSC[C@@H](C(=O)O)NC(=O)[C@H](CO)NC1=O` [Ex. 3, L-Cysteinyl-L-arginyl-D-seryl-L-phenylalanyl-L-phenylalanyl-D-tryptophyl-L- lysyl-L-threonyl-L-phenylalanyl-L-threonyl-L-seryl-L-cysteine cyclic (1→12)-disulfide triacetate (salt)] (H-CR[dS]FF[dW]KTFTSC-OH; disulfide 1-12), in the assay with growth hormone [1] (setting [3]), the GH came to 37 ± 9 ng/mL. The compound further registered an INS in the assay with insulin (setting [4]) of 8 ± 1 μU/ml. The same compound gave a GLUN in the assay on glucagon (setting [5]) of 26 ± 5 pg/mL. Besides, the “GH (duration of activity)” value with growth hormone [2] (2 hours, control 290 ± 64, p<0.02) was 91 ± 29 ng/mL; in the assay with growth hormone [2] (4 hours, control 133 ± 38, p<0.1 (not significant)), 57 ± 12 ng/mL.
`C[C@@H](O)[C@@H]1NC(=O)[C@H](Cc2ccccc2)NC(=O)[C@H]([C@@H](C)O)NC(=O)[C@H](CCCCN)NC(=O)[C@@H](Cc2c[nH]c3ccccc23)NC(=O)[C@H](Cc2ccccc2)NC(=O)[C@H](Cc2ccccc2)NC(=O)[C@@H](Cc2c[nH]cn2)NC(=O)[C@H](CCCNC(=N)N)NC(=O)[C@@H](N)CSSC[C@@H](C(=O)O)NC(=O)[C@H](CO)NC1=O` [Ex. 4, L-Cysteinyl-L-arginyl-D-histidyl-L-phenylalanyl-L-phenylalanyl-D-tryptophyl-L-lysyl-L-threonyl-L-phenylalanyl-L-threonyl-L-seryl-L-cysteine cyclic (1→12) disulfide tetra-acetate (salt)] (H-CR[dH]FF[dW]KTFTSC-OH; disulfide 1-12) displayed a GH with growth hormone [1] (dose 500 μg/kg, control 119 ± 29) of 6 ± 1 ng/mL. Also, the INS in the assay with insulin (dose 500 μg/kg, control 280 ± 15) is 127 ± 22 μU/ml. This compound gave a GLUN in the assay on glucagon (dose 500 μg/kg, control 44 ± 6) of 29 ± 5 pg/mL. Also, the “GH (duration of activity)” value with growth hormone [2] (2 hours, control 82 ± 25, p<0.05) turned out to be 24 ± 5 ng/mL; with growth hormone [2] (4 hours, control 76 ± 28, p<0.1 (not significant)), 20 ± 7 ng/mL; in the assay with growth hormone [2] (5 hours, control 171 ± 38, p<0.02) it was 54 ± 11 ng/mL; with growth hormone [2] (6 hours, control 73 ± 10) it was 54 ± 13 ng/mL.
Consider `C[C@@H](O)[C@@H]1NC(=O)[C@H](Cc2ccccc2)NC(=O)[C@H]([C@@H](C)O)NC(=O)[C@H](CCCCN)NC(=O)[C@@H](Cc2c[nH]c3ccccc23)NC(=O)[C@H](Cc2ccccc2)NC(=O)[C@H](Cc2ccccc2)NC(=O)[C@@H](Cc2ccc(O)cc2)NC(=O)[C@H](CCCCN)NC(=O)[C@@H](N)CSSC[C@@H](C(=O)O)NC(=O)[C@H](CO)NC1=O` [Ex. 5, L-Cysteinyl-L-lysyl-D-tyrosyl-L-phenylalanyl-L-phenylalanyl-D-tryptophyl-L- lysyl-L-threonyl-L-phenylalanyl-L-threonyl-L-seryl-L-cysteine cyclic (1→12) disulfide] (H-CK[dY]FF[dW]KTFTSC-OH; disulfide 1-12), for which the “GH (duration of growth hormone suppression)” value in the assay on growth hormone [2] (2 hours, control 84 ± 17, p<0.01) was 27 ± 5 ng/mL; with growth hormone [2] (2 hours, second experiment, control 80 ± 12), 72 ± 21 ng/mL; in the assay with growth hormone [2] (4 hours, control 84 ± 22, p<0.05) it was 33 ± 4 ng/mL; with growth hormone [2] (5 hours, control (printed 2 hours) 141 ± 51) it was 113 ± 27 ng/mL.
As to `C[C@@H](O)[C@@H]1NC(=O)[C@H](Cc2ccccc2)NC(=O)[C@H]([C@@H](C)O)NC(=O)[C@H](CCCCN)NC(=O)[C@@H](Cc2c[nH]c3ccccc23)NC(=O)[C@H](Cc2ccccc2)NC(=O)[C@H](Cc2ccccc2)NC(=O)[C@@H](CCCNC(=N)N)NC(=O)[C@H](CCCCN)NC(=O)[C@@H](N)CSSC[C@@H](C(=O)O)NC(=O)[C@H](CO)NC1=O` [Ex. 6] (H-CK[dR]FF[dW]KTFTSC-OH; disulfide 1-12), the GH with growth hormone [1] (setting [3]) turned out to be 34 ± 8 ng/mL. Moreover, in the assay on insulin (setting [4]), the INS was determined as 5 ± 1 µU/mL. Further, the GLUN in the assay with glucagon (setting [5]) stood at 32 ± 5 pg/mL. The “GH (duration of activity)” value turned out to be 53 ± 8 ng/mL with growth hormone [2] (2 hours, control 148 ± 25, p<0.01) and 21 ± 4 ng/mL in the assay with growth hormone [2] (4 hours, control 73 ± 24, p<0.1).
Consider `C[C@@H](O)[C@@H]1NC(=O)[C@H](CCCCN)NC(=O)[C@@H](Cc2c[nH]c3ccccc23)NC(=O)[C@H](Cc2ccccc2)NC(=O)[C@H](Cc2ccccc2)NC(=O)[C@@H](Cc2ccc(O)cc2)NC(=O)[C@H](CCCNC(=N)N)NC(=O)[C@@H](N)CSSC[C@H](C(=O)O)NC(=O)[C@H](CO)NC(=O)[C@H]([C@@H](C)O)NC(=O)[C@H](Cc2ccccc2)NC1=O` [L-Cysteinyl-L-arginyl-D-tyrosyl-L-phenylalanyl-L-phenylalanyl-D-tryptophyl- L-lysyl-L-threonyl-L-phenylalanyl-L-threonyl-L-seryl-D-cysteine cyclic (1→12) disuflide] (H-CR[dY]FF[dW]KTFTS[dC]-OH; disulfide 1-12), for which the GH in the assay on growth hormone [1] (dose 3,000 μg/kg sc, control 176 ± 33) came out at 17 ± 3 ng/mL. Also, the “reduction of secretion of growth hormone, insulin and glucagon (in words)” value in the assay on growth hormone [1] (summary of rat data) is “effective agent for reducing secretion of growth hormone, insulin, and glucagon”. Besides, the INS with insulin (dose 100 μg/kg sc, control 43 ± 3) worked out at 7 ± 2 µU/mL; in the assay with insulin (dose 3,000 μg/kg sc, control 340 ± 17), 48 ± 9 µU/mL. Also, the GLUN in the assay on glucagon (dose 100 μg/kg sc, control 46 ± 6, p>0.05) was found to be 31 ± 4 pg/mL; in the assay on glucagon (dose 3,000 μg/kg sc, control 48 ± 5, p<0.01), 23 ± 4 pg/mL. Besides, the “Plasma GH” value with growth hormone [2] (500 μg/kg SC, 6 hours after injection, control 103 ± 17) was determined as 152 ± 27 ng/mL; in the assay with growth hormone [2] (1,000 μg/kg SC, 2 hours after injection, control 542 ± 145, p<0.01), 30 ± 5 ng/mL; in the assay on growth hormone [2] (1,000 μg/kg SC, 4 hours after injection, control 107 ± 25, p<0.01), 37 ± 6 ng/mL; in the assay on growth hormone [2] (1,000 μg/kg SC, 6 hours after injection, control 103 ± 17), 114 ± 22 ng/mL. In addition, the “duration of growth hormone suppression (in words)” value in the assay with growth hormone [2] (summary of rat data) is “very prolonged activity in suppressing growth hormone blood levels”.
`C[C@H](N)C(=O)NCC(=O)N[C@H]1CSSC[C@@H](C(=O)O)NC(=O)[C@H](CO)NC(=O)[C@H]([C@@H](C)O)NC(=O)[C@H](Cc2ccccc2)NC(=O)[C@H]([C@@H](C)O)NC(=O)[C@H](CCCCN)NC(=O)[C@H](Cc2c[nH]c3ccccc23)NC(=O)[C@H](Cc2ccccc2)NC(=O)[C@H](Cc2ccccc2)NC(=O)[C@H](CC(N)=O)NC(=O)[C@H](CCCCN)NC1=O` [SRIF, reference compound] yielded an INS in the assay with insulin (dose 200 μg/kg sc, control 43 ± 3) of 31 ± 2 µU/mL. In addition, the GLUN in the assay on glucagon (dose 200 μg/kg sc, control 46 ± 6, p<0.01) was found to be 21 ± 4 pg/mL.

The record behind these values is patent US4204990A, “Somatostatin analogues” (American Home Products Corporation, priority 1978, dated 1980).
